Source: the kinase profiling compilation of Christmann-Franck et al. (2016)

Legend:
Experiment in all cases: radiometric filter-binding kinase assay, Kinaseprofiler
[1] = target: TSSK2 (human) (UniProt Q96PF2); conditions: compound 1.0 µM; ATP 15 µM
[2] = target: MAP3K7 (human) (UniProt O43318); conditions: compound 1.0 µM; ATP 45 µM
[3] = target: MAPK8 (human) (UniProt P45983); conditions: compound 1.0 µM; ATP 45 µM
[4] = system: AXL (human), P30530 [Q764R]; conditions: compound 1.0 µM; ATP 90 µM
[5] = system: MAPKAPK5 (human), Q8IW41 [R291E]; conditions: compound 1.0 µM; ATP 15 µM
[6] = target: FRK (human) (UniProt P42685); conditions: compound 1.0 µM; ATP 155 µM
Sequence of FRK (human) (P42685 whole entry, looked up): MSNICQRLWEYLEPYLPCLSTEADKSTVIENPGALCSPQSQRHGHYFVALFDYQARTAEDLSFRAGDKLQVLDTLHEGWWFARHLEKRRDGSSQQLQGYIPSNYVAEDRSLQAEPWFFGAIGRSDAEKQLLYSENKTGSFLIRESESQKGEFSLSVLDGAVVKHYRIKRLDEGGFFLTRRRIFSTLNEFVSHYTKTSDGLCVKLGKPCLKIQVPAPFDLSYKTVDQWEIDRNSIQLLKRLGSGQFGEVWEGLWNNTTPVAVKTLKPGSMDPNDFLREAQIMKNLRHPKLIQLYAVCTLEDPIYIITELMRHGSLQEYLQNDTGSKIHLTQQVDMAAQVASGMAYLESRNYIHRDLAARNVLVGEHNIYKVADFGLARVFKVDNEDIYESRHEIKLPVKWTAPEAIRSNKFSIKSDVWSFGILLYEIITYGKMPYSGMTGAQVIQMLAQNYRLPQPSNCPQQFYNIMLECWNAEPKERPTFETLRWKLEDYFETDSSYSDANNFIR

[7] = target: PLK2 (human) (UniProt Q9NYY3); conditions: compound 1.0 µM; ATP 120 µM
[8] = target: DAPK3 (human) (UniProt O43293); conditions: compound 1.0 µM; ATP 15 µM
Sequence of DAPK3 (human) (O43293 whole entry, looked up): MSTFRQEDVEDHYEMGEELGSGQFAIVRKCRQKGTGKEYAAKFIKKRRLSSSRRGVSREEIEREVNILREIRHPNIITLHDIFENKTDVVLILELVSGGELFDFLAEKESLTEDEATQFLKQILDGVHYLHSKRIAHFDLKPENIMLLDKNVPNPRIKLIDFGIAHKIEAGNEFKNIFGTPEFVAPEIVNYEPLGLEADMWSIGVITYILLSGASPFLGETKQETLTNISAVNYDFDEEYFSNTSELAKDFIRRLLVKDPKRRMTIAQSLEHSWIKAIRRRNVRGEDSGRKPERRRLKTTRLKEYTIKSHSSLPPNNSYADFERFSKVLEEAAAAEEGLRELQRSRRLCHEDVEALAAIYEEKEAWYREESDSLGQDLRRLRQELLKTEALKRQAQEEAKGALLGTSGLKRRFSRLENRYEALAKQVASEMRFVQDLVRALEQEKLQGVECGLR

[9] = target: MAPK14 (human) (UniProt Q16539); conditions: compound 1.0 µM; ATP 90 µM
[10] = target: EPHB4 (human) (UniProt P54760); conditions: compound 1.0 µM; ATP 10 µM
[11] = system: DDR2 (human), Q16832 [S642A]; conditions: compound 1.0 µM; ATP 200 µM
[12] = target: PRKCG (human) (UniProt P05129); conditions: compound 1.0 µM; ATP 15 µM
[13] = target: MAPKAPK3 (human) (UniProt Q16644); conditions: compound 1.0 µM; ATP 90 µM
Sequence of MAPKAPK3 (human) (Q16644 whole entry, looked up): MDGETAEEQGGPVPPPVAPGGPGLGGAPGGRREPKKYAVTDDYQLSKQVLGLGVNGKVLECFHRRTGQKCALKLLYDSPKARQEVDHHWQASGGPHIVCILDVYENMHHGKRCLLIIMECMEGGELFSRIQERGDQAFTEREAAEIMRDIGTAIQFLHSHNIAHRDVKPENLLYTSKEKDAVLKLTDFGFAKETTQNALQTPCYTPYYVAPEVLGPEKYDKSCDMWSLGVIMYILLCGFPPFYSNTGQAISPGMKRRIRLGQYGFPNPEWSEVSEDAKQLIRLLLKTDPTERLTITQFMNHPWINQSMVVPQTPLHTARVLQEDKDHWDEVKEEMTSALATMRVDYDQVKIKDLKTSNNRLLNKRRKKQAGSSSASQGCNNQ

[14] = system: IRAK4 (human), Q9NWZ3 [A81V]; conditions: compound 1.0 µM; ATP 200 µM
[15] = target: TSSK1B (human) (UniProt Q9BXA7); conditions: compound 1.0 µM; ATP 15 µM
[16] = target: YES1 (human) (UniProt P07947); conditions: compound 1.0 µM; ATP 45 µM
[17] = target: TBK1 (human) (UniProt Q9UHD2); conditions: compound 1.0 µM; ATP 155 µM
[18] = target: SIK1 (human) (UniProt P57059); conditions: compound 1.0 µM; ATP 45 µM
[19] = system: SGK2 (human), Q9HBY8 [S416D]; conditions: compound 1.0 µM; ATP 15 µM
[20] = target: DMPK (human) (UniProt Q09013); conditions: compound 1.0 µM; ATP 10 µM
[21] = target: HIPK3 (human) (UniProt Q9H422); conditions: compound 1.0 µM; ATP 15 µM
[22] = target: MAPK11 (human) (UniProt Q15759); conditions: compound 1.0 µM; ATP 45 µM
[23] = target: PDGFRA (human) (UniProt P16234); conditions: compound 1.0 µM; ATP 120 µM
Sequence of PDGFRA (human) (P16234 whole entry, looked up): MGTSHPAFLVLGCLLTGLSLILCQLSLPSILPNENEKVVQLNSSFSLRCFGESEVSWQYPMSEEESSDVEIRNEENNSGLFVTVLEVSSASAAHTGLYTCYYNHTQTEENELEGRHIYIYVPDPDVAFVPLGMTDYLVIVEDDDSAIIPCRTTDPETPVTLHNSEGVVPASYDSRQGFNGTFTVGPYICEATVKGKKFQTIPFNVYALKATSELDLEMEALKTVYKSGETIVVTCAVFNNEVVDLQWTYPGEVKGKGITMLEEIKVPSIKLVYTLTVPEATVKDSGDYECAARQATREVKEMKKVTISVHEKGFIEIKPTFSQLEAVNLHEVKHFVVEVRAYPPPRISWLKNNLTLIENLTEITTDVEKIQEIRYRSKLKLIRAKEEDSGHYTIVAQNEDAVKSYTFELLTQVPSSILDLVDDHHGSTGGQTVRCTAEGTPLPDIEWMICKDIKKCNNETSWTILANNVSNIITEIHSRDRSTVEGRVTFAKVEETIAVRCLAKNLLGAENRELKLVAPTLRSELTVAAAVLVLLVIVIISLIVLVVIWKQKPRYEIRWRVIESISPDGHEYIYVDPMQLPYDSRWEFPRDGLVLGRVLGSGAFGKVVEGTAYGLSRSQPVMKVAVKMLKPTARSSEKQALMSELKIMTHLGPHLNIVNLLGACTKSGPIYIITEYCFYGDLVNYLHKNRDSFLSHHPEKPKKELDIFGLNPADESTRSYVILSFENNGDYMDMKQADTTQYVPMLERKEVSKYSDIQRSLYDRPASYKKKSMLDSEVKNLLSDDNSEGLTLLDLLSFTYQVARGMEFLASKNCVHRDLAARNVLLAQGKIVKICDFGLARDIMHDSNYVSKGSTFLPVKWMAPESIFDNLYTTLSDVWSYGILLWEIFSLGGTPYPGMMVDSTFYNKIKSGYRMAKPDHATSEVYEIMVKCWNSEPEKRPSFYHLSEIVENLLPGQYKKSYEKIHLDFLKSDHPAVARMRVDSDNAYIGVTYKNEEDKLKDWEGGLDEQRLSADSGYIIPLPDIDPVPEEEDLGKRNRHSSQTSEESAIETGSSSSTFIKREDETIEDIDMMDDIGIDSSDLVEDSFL

[24] = target: CDK6 CCND3 (human) (UniProt P30281+Q00534); conditions: compound 1.0 µM; ATP 200 µM
[25] = system: FLT3 (human), P36888 [D835Y]; conditions: compound 1.0 µM; ATP 200 µM
[26] = system: MARK1 (human), Q9P0L2 [V16E/T20S]; conditions: compound 1.0 µM; ATP 10 µM
Sequence of MARK1 (human), Q9P0L2 [V16E/T20S] (Q9P0L2 whole entry, looked up, stated change not applied): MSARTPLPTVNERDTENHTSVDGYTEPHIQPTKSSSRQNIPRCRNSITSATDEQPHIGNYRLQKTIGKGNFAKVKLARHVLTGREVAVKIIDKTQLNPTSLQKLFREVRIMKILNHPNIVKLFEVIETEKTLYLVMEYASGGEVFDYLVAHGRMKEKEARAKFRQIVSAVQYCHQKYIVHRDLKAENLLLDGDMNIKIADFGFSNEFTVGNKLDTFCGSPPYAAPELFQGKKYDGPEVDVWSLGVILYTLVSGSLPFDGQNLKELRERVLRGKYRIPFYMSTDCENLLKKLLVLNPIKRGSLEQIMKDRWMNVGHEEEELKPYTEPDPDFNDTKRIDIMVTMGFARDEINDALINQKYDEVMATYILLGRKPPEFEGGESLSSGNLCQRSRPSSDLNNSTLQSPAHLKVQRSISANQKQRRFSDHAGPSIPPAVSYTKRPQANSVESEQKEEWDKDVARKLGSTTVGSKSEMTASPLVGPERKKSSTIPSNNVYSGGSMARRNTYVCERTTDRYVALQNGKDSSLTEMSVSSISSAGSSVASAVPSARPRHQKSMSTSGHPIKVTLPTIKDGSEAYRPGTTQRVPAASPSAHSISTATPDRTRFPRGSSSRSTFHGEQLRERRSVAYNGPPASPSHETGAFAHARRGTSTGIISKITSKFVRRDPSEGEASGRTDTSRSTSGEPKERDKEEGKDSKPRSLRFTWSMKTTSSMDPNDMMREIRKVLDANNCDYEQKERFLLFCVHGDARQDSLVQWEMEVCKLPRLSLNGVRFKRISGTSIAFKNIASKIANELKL

[27] = target: RPS6KA5 KD1 KD2 (human) (UniProt O75582); conditions: compound 1.0 µM; ATP 90 µM
[28] = system: EGFR (human), P00533 [L858R]; conditions: compound 1.0 µM; ATP 10 µM
[29] = target: CHEK2 (human) (UniProt O96017); conditions: compound 1.0 µM; ATP 70 µM
[30] = target: LIMK1 (human) (UniProt P53667); conditions: compound 1.0 µM; ATP 15 µM
[31] = target: SRPK3 (human) (UniProt Q9UPE1); conditions: compound 1.0 µM; ATP 15 µM
Sequence of SRPK3 (human) (Q9UPE1 whole entry, looked up): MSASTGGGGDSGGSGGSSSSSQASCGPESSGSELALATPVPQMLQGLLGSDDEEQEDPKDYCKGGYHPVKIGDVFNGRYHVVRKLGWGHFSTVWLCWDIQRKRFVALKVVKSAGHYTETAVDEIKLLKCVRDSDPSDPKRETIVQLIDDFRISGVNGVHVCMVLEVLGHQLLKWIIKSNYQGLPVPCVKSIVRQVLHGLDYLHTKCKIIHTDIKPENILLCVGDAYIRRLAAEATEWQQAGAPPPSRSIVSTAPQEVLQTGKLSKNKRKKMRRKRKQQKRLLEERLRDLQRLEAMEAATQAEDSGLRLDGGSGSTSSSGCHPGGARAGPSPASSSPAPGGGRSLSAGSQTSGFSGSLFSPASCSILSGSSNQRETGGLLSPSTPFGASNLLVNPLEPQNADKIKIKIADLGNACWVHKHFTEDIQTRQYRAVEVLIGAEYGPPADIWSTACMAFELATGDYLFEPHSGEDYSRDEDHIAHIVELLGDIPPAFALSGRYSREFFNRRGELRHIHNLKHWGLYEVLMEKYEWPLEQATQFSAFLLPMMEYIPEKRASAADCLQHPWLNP

[32] = target: STK11 (human) (UniProt Q15831); conditions: compound 1.0 µM; ATP 155 µM
[33] = target: NTRK1 (human) (UniProt P04629); conditions: compound 1.0 µM; ATP 120 µM
Sequence of NTRK1 (human) (P04629 whole entry, looked up): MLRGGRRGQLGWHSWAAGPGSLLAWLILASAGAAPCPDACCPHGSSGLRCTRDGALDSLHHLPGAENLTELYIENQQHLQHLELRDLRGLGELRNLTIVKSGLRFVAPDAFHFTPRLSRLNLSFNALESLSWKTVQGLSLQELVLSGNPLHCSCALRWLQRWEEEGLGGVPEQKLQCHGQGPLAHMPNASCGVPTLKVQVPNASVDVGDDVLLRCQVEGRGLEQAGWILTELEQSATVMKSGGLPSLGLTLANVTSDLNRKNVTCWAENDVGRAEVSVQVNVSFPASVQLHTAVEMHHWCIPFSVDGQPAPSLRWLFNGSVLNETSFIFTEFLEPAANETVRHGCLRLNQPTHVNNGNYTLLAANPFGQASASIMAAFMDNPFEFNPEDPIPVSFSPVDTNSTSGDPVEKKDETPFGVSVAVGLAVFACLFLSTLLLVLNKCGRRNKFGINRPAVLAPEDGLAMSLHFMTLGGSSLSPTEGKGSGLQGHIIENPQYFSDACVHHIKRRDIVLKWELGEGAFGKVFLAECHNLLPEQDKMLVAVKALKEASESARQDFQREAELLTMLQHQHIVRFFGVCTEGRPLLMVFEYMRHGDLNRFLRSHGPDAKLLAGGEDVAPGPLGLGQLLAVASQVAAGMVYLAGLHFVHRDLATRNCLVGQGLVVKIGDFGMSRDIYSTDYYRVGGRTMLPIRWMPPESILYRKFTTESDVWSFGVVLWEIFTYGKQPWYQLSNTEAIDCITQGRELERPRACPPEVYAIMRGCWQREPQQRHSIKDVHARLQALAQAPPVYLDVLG

[34] = target: PAK3 (human) (UniProt O75914); conditions: compound 1.0 µM; ATP 120 µM
[35] = target: ACVR1B (human) (UniProt P36896); conditions: compound 1.0 µM; ATP 10 µM
[36] = target: INSR (human) (UniProt P06213); conditions: compound 1.0 µM; ATP 200 µM
[37] = target: STK24 (human) (UniProt Q9Y6E0); conditions: compound 1.0 µM; ATP 15 µM
Sequence of STK24 (human) (Q9Y6E0 whole entry, looked up): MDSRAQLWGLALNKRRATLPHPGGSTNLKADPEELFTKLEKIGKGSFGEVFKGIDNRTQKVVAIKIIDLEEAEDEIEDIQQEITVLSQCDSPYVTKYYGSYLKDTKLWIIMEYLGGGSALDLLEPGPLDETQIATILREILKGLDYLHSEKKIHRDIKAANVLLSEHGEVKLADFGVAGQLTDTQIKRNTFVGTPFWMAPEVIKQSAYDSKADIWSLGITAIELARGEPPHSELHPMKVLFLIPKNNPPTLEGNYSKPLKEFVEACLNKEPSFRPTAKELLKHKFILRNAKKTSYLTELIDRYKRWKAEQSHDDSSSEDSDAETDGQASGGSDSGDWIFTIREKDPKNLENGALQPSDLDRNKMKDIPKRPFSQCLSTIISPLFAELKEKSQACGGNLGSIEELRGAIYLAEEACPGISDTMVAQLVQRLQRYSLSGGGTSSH

[38] = system: RAF1 (human), P04049 [Y340D/Y341D]; conditions: compound 1.0 µM; ATP 45 µM

residual activity [1]: 83%
residual activity [2]: 75%
residual activity [3]: 98%
residual activity [4]: 17%
residual activity [5]: 97%
residual activity [6]: 104%
residual activity [7]: 58%
residual activity [8]: 87%
residual activity [9]: 124%
residual activity [10]: 103%
residual activity [11]: 108%
residual activity [12]: 101%
residual activity [13]: 102%
residual activity [14]: 14%
residual activity [15]: 89%
residual activity [16]: 71%
residual activity [17]: 93%
residual activity [18]: 87%
residual activity [19]: 114%
residual activity [20]: 101%
residual activity [21]: 102%
residual activity [22]: 113%
residual activity [23]: 59%
residual activity [24]: 108%
residual activity [25]: 2%
residual activity [26]: 62%
residual activity [27]: 101%
residual activity [28]: 41%
residual activity [29]: 93%
residual activity [30]: 72%
residual activity [31]: 83%
residual activity [32]: 134%
residual activity [33]: 1%
residual activity [34]: 99%
residual activity [35]: 100%
residual activity [36]: 109%
residual activity [37]: 102%
residual activity [38]: 72%
Compound: CN(C)S(=O)(=O)Nc1ccc2ccc3ncc(-c4cnn(C)c4)cc3c(=O)c2c1
